# Values of other authors in patent US5258185A (priority 1989, dated 1993).
# Columns and labels:
# [1] = e.g. incorporation in melts of high molecular polyethylene glycols
# [2] = not given; remark: listed apart in the source
# [3] = extremely fine crystallizates, surface size 3 to 10 m^2 (DE-OS 23 48 334)
smiles,measurement,setting,value
"COc1ccc(Cl)cc1C(=O)NCCc1ccc(S(=O)(=O)NC(=O)NC2CCCCC2)cc1 [Glibenclamide, N-4-(5-chloro-[2-methoxy-benzamido)ethyl]phenylisulfonyl-N'-cyclohexyl urea]",water solubility depending on pH,acidic range,virtually water-insoluble
same,solubility in alcohol,alcohol,only moderately soluble
same,solubility in chloroform,chloroform,only moderately soluble
same,solubility in ether,ether,virtually insoluble
same,solubility and dissolution rate with increase in surface,[3],increase in solubility and dissolution rate
same,solubility in water,water,virtually insoluble
same,effect of processing at elevated temperatures on stability,[1],detrimental to stability
same,bioavailability with increase in surface,[2]; [3],improving the bioavailability
same,drug release and bioavailability of micronized glibenclamide,"[2]; micronized, mean particle size ±5 μm, above all in the presence of tensides",improved drug release and bioavailability
